Patent US10471059B2, “Compositions and methods of using tyrosine kinase inhibitors” (YALE UNIVERSITY, priority 2015, dated 2019)
Entries after “also recorded” stand apart in the source; their conditions may differ.

What was measured:
Ptpn11^D61G/+ mice = experiment: Heart weight and histology (Masson's trichrome) after postnatal dasatinib; type: in vivo; settings: NS mice
Procedure: FIG. 15, comprising FIG. 15a-15j, is a panel of images showing cardiomyopathy and cardiac fibrosis in Ptpn11^D61G/+ mice rescued by dasatinib. […] FIG. 15e is a graph showing relative expression of fibrosis marker gene, Col1a2. […] FIG. 15f is a graph showing relative expression of fibrosis marker gene, Col3a1. FIG. 15g is a graph showing relative expression of cardiac fetal gene, Myh6 (αMHC). FIG. 15h is a graph showing relative expression of cardiac fetal gene, Myh7 (βMHC). FIG. 15i is a graph showing relative expression of cardiac fetal gene, Anf. FIG. 15j is a graph showing relative expression of cardiac fetal gene, Bnp. The genes were measured by quantitative RT-PCR (n=6 for each group). […] (Two-way ANOVA test).

[1] = test system: WT and Ptpn11^D61G/+ mice; experiment: Echocardiography, postnatal dasatinib treatment; type: in vivo; settings: for % EF (ejection fraction) / % FS (fractional shortening) / IVS, d (Intraventricular septum wall thickness, diastole) / IVS, s (Intraventricular septum wall thickness, systole) / LV vol, d (left ventricle volume, diastole) / LV vol, s (left ventricle volume, systole) / LVID, d (left ventricular internal dimension, diastole) / LVID, s (left ventricular internal dimension, systole) / LVPW, d (left ventricular posterior wall thickness, diastole) / LVPW, s (left ventricular posterior wall thickness, systole): n = 6, Mean ± SEM
Procedure: Dasatinib Treatment—N-(2-chloro-6-methylphenyl)-2-[[6-[4-(2-hydroxyethyl)-1-piperazinyl]-2-methyl-4-pyrimidinyl]amino]-5-thiazole carboxamide monohydrate (dasatinib, BMS-354825) was purchased from Biovision. dasatinib was dissolved in DMSO at a concentration of 10 mg/ml, then resuspended in vehicle (1× Dulbecco's PBS) at a concentration of 200 μg/ml. […] And then, injection was continued or discontinued for 2 weeks, Vehicle-injected mice served as control, Body weight was measured weekly and echocardiography was performed at P42 (6-weeks) and P56 (8-weeks).
(§1) Vehicle-injected mice served as control.

[2] = test system: Ptpn11^D61G/+ X WT breeder; experiment: Progeny from prenatal dasatinib treated Ptpn11D61G/+ X WT breeder
Procedure: as §1
Dasatinib was administered into pregnant mothers and amelioration of cardiac defects in NS mice was assessed. Dasatinib was administered at 0.1, 0.5 or 1.0 mg/kg daily interperitoneally into wild type pregnant mice intercrossed with NS mice, beginning at embryonic day 7 until postnatal day 9 (in nursing females). After postnatal day 10 (P10), dasatinib injections resumed directly into individual pups daily until 8-weeks (P56) after birth (FIG. 14a).

[3] = test system: c-Src and PZR tyrosyl phosphorylation in the heart of NS mice; experiment: Phosphorylation in heart tissue after i.p. dasatinib, immunoblot; type: in vivo
Procedure: Male Ptpn11D61G/+ mice were injected i.p. with dasatinib at the indicated dose or DMSO control, 24h later mice were sacrificed, heart tissue harvested and immunoblotted using the indicated antibodies.
FIG. 13i is an image showing heart tissue immunoblotted with anti-Shp2, p-ERK1/2, ERK1/2, p-Src (Y416), Src, p-PZR (Y263) and PZR antibodies. […] Heart tissue was isolated after 18 hr and tissue lysates were immunoblotted.
FIG. 18a is an image showing heart tissue immunoblotted with p-Raf1 (Y341), Raf1, p-MEK1/2, MEK1/2, p-INK, INK, p-p38, p38, p-Akt (S473) and Akt antibodies. Heart tissue was isolated after 18 hr and tissue lysates were immunoblotted.
Immunoprecipitation and Immunoblotting—Cells or heart tissue were lysed on ice in lysis buffer (25 mM Tris-HCl, pH 7.4, 136 mM NaCl, 1 mM CaCl2, 1 mM MgCl2, 1% Nonidet P-40, 1 mM Na3VO4, 10 mM NaF, 1 mM benzamidine, 1 mM PMSF, 1 μg/ml pepstatin A, 5 μg/ml aprotinin, and 5 μg/ml leupeptin). Cell or tissue lysates were incubated at 4° C. for 30 min and clarified by centrifugation at 14,000 rpm at 4° C. for 10 min.

tumor incidence = settings: mice; cited from earlier work
[4] = test system: WT and Ptpn11^D61G/+ mice; experiment: Invasive hemodynamic study, postnatal dasatinib treatment; type: in vivo
Procedure: as §1
Hemodynamic Study—Anesthesia was induced by intraperitoneal injection of ketamine (100 mg/kg) and xylazine (5 mg/kg). The animal was placed on a warm pad and an incision was made on the neck. The right side carotid artery was exposed and a 1.9-French transducer-tipped catheter (Millar Inc., Houston, Tex.) was inserted into the artery, and then was advanced into left ventricle. Left ventricular pressures including high-fidelity positive, negative dp/dt and heart rate were measured under basal conditions. Data were recorded and analyzed by using LabChart software.

[5] = cited from earlier work
[6] = postnatal 0.1 mg/kg/day i.p. P10 to P42, then discontinued 2 weeks, Ptpn11D61G/+ mice, P56
[7] = postnatal 0.1 mg/kg/day i.p. P10 to P42, then discontinued 2 weeks, WT mice, P56
[8] = postnatal 0.1 mg/kg/day i.p. from P10, Ptpn11D61G/+ mice, P42
[9] = postnatal 0.1 mg/kg/day i.p. from P10, WT mice, P42
[10] = Ptpn11D61G/+ mice, P56, n = 9, Mean ± SEM
[11] = WT mice, P56, n = 8, Mean ± SEM

SMILES: Cc1nc(Nc2ncc(C(=O)Nc3c(C)cccc3Cl)s2)cc(N2CCN(CCO)CC2)n1.O [Dasatinib, N-(2-chloro-6-methylphenyl)-2-[[6-[4-(2-hydroxyethyl)-1-piperazinyl]-2-methyl-4-pyrimidinyl]amino]-5-thiazole carboxamide monohydrate]
- cardiac fibrosis at the histological level (Ptpn11^D61G/+ mice; P56): markedly reduced
- pathologic cardiac phenotypes (heart weight, dilated cardiomyopathy, myofibrillar disorganization) (Ptpn11^D61G/+ mice; P56, monohydrate): profound reversal; also recorded: rescued
- fold lower than therapeutic dose ([1]; 0.1 mg/kg versus therapeutic dose): about 200 fold
- dose sufficient to treat CHD-associated cardiac disease ([1]; mice): 0.1 mg/kg
- cardiac function after cessation of treatment ([1]; postnatal 0.1 mg/kg/day P10 to P42, discontinued 2 weeks, NS mice, P56, monohydrate): preserved improvement of cardiac function; also recorded: continued preservation of cardiac function
- cardiac function (EF and FS) ([1]; postnatal 0.1 mg/kg/day from P10, NS mice, P42, monohydrate): improves cardiac function; also recorded: complete corrective functionality; also recorded: completely restored cardiac functionality
- % EF (ejection fraction) [1, 6]: 64.71 ± 1.67 %
- % FS (fractional shortening) [1, 6]: 34.92 ± 1.23 %
- IVS, d (Intraventricular septum wall thickness, diastole) [1, 6]: 0.72 ± 0.04 mm
- IVS, s (Intraventricular septum wall thickness, systole) [1, 6]: 1.18 ± 0.05 mm
- LV vol, d (left ventricle volume, diastole) [1, 6]: 65.60 ± 2.44 mm^3
- LV vol, s (left ventricle volume, systole) [1, 6]: 24.85 ± 1.68^† mm^3
- LVID, d (left ventricular internal dimension, diastole) [1, 6]: 3.93 ± 0.08 mm
- LVID, s (left ventricular internal dimension, systole) [1, 6]: 2.60 ± 0.07 mm
- LVPW, d (left ventricular posterior wall thickness, diastole) [1, 6]: 0.65 ± 0.03 mm
- LVPW, s (left ventricular posterior wall thickness, systole) [1, 6]: 1.19 ± 0.05 mm
- % EF (ejection fraction) [1, 7]: 65.89 ± 1.74%
- % FS (fractional shortening) [1, 7]: 36.63 ± 1.20%
- IVS, d (Intraventricular septum wall thickness, diastole) [1, 7]: 0.69 ± 0.03 mm
- IVS, s (Intraventricular septum wall thickness, systole) [1, 7]: 1.19 ± 0.06 mm
- LV vol, d (left ventricle volume, diastole) [1, 7]: 64.06 ± 2.65 mm^3
- LV vol, s (left ventricle volume, systole) [1, 7]: 23.06 ± 2.21 mm^3
- LVID, d (left ventricular internal dimension, diastole) [1, 7]: 3.92 ± 0.09 mm
- LVID, s (left ventricular internal dimension, systole) [1, 7]: 2.52 ± 0.10 mm
- LVPW, d (left ventricular posterior wall thickness, diastole) [1, 7]: 0.80 ± 0.06 mm
- LVPW, s (left ventricular posterior wall thickness, systole) [1, 7]: 1.18 ± 0.05 mm
- % EF (ejection fraction) [1, 8]: 60.93 ± 2.06 %
- % FS (fractional shortening) [1, 8]: 33.08 ± 1.33 %
- IVS, d (Intraventricular septum wall thickness, diastole) [1, 8]: 0.66 ± 0.05 mm
- IVS, s (Intraventricular septum wall thickness, systole) [1, 8]: 1.04 ± 0.07 mm
- LV vol, d (left ventricle volume, diastole) [1, 8]: 57.35 ± 2.19 mm^3
- LV vol, s (left ventricle volume, systole) [1, 8]: 24.67 ± 1.18 mm^3
- LVID, d (left ventricular internal dimension, diastole) [1, 8]: 3.63 ± 0.07 mm
- LVID, s (left ventricular internal dimension, systole) [1, 8]: 2.50 ± 0.08 mm
- LVPW, d (left ventricular posterior wall thickness, diastole) [1, 8]: 0.71 ± 0.03 mm
- LVPW, s (left ventricular posterior wall thickness, systole) [1, 8]: 1.09 ± 0.06 mm
- % EF (ejection fraction) [1, 9]: 65.70 ± 0.82%
- % FS (fractional shortening) [1, 9]: 35.52 ± 0.69%
- IVS, d (Intraventricular septum wall thickness, diastole) [1, 9]: 0.71 ± 0.05 mm
- IVS, s (Intraventricular septum wall thickness, systole) [1, 9]: 1.13 ± 0.06 mm
- LV vol, d (left ventricle volume, diastole) [1, 9]: 65.87 ± 2.78 mm^3
- LV vol, s (left ventricle volume, systole) [1, 9]: 22.24 ± 0.63 mm^3
- LVID, d (left ventricular internal dimension, diastole) [1, 9]: 3.80 ± 0.11 mm
- LVID, s (left ventricular internal dimension, systole) [1, 9]: 2.45 ± 0.05 mm
- LVPW, d (left ventricular posterior wall thickness, diastole) [1, 9]: 0.81 ± 0.04 mm
- LVPW, s (left ventricular posterior wall thickness, systole) [1, 9]: 1.25 ± 0.07 mm
- adverse effects ([2]; mouse, in vivo, ip, 0.1 mg/kg): no observable adverse effects
- Dead pups ([2]; prenatal dasatinib 0.1 mg/kg, number of pups): 4
- embryonic lethality ([2]; prenatal treatment at 0.5 and 1.0 mg/kg/per day i.p.): embryonic lethality
- ERK1/2, Raf-1, MEK1, p38 MAPK and JNK phosphorylation in the heart ([3]; 3-week-old NS mice, dasatinib 0.1-0.5 mg/kg i.p.): neither ERK1/2 phosphorylation (FIGS. 13i-13l), Raf-1, MEK1, p38 MAPK, nor JNK were affected
- dose sufficient to significantly inhibit both c-Src and PZR tyrosyl phosphorylation in the heart ([3]; 3-week-old NS mice, i.p., heart isolated after 18 hr): 0.5 mg/kg
- fold lower dose than effective chemotherapeutic doses that can inhibit PZR tyrosyl phosphorylation in the heart ([3]; NS mice, chemotherapeutic approx. 1.4-2.0 mg/kg/day): up to 250 fold
- PZR tyrosyl phosphorylation in heart tissue ([3]; male Ptpn11D61G/+ mice, i.p., 24 h): effective at reducing
- dosage effective in preventing tumor incidence (tumor incidence): ~20 mg/kg
- aortic blood pressure and left ventricular pressure ([4]; NS mice, P56): significantly restored
- +dp/dt [4, 10]: 7718 ± 498 mmHg/s
- Diastolic pressure [4, 10]: 84.0 ± 3.5 mmHg
- End diastolic pressure [4, 10]: 11.1 ± 0.7 mmHg
- Left ventricle pressure [4, 10]: 127.9 ± 4.5 mmHg
- Mean arterial pressure [4, 10]: 96.8 ± 4.2 mmHg
- Pulse pressure [4, 10]: 63.7 ± 4.4 mmHg
- Systolic pressure [4, 10]: 129.3 ± 6.2 mmHg
- −dp/dt [4, 10]: −6189 ± 626 mmHg/s
- +dp/dt [4, 11]: 8626 ± 476 mmHg/s
- Diastolic pressure [4, 11]: 95.1 ± 4.2 mmHg
- End diastolic pressure [4, 11]: 8.7 ± 1.3 mmHg
- Left ventricle pressure [4, 11]: 136.5 ± 2.5 mmHg
- Mean arterial pressure [4, 11]: 112.1 ± 4.0 mmHg
- Pulse pressure [4, 11]: 65.2 ± 4.6 mmHg
- Systolic pressure [4, 11]: 146.2 ± 5.1 mmHg
- −dp/dt [4, 11]: −6529 ± 847 mmHg/s
- dose of therapeutic effects in humans ([5]; humans): ~2 mg/kg
- equivalent dose in mice of the human therapeutic dose ([5]; mice equivalent): ~24 mg/kg
